Patent US4388311A, “Method for the induction of menses” (G. D. Searle & Co., priority 1982, dated 1983)
Values joined by “and” are separate entries in the source; they are usually repeats but may differ in a detail not shown here. Identical values can stand only once.

How the values were obtained:
Format in all cases: in vivo, rat
pregnancy in rats [1] = assay: Termination of pregnancy in rats, compounds administered subcutaneously (Table 2); conditions: for Serum Progesterone (Percent Control) / Serum Progesterone ng/ml + S.E.: serum day 11, 24 hours after initial injection
Protocol: (§1) The following tables list the results for a compound of Formula IV as compared with a control of previously known 2α-cyano-17β-hydroxy-3-oxo-4,4,17α-trimethylandrost-5-end(Cyanoketone) for termination of pregnancy.
^1 Compounds given subcutaneously in corn oil vehicle once daily on
days 10 through 13 of pregnancy. Serum for progesterone determination was
drawn on day 11 of pregnancy, 24 hours after the initial injection of
(§2) compound. The animals were autopsied on day 14 of pregnancy.
^2 Serum progesterone values determined by RIA at Interlab Associates

pregnancy in rats [2] = assay: Pregnancy termination in rats, compounds administered intragastrically on day 10 of pregnancy (Table 3); conditions: for Serum Progesterone (Percent Control) / Serum Progesterone ng/ml + S.E.: serum day 11, 24 hours after injection; for Adrenal Wt. mg + SE / Fetal Viability: Normal Fetuses/Implantation Sites / Fetal Viability: Normal Fetuses/Implantation Sites (Percent) / Number of Rats Pregnant/Number of Rats Treated / Number of Rats Pregnant/Number of Rats Treated (Percent): autopsy day 14
Protocol: as §1
(§3) ^1 Compounds were administered intragastrically once daily on days 10
of pregnancy in a vehicle consisting of PEG400, propylene glycol and 100
percent ethanol (50:40:10, v:v:v). Serum for progesterone determination
was drawn on day 11 of pregnancy, 24 hours after the initial injection of
as §2

pregnancy in rats [3] = assay: Pregnancy termination in rats, compounds administered intragastrically for four days (Table 1); conditions: for Serum Progesterone (Percent Control) / Serum Progesterone ng/ml + S.E.: serum day 11, 24 hours after initial injection; for Adrenal Wt. mg + SE / Fetal Viability: Normal Fetuses/Implantation Sites / Fetal Viability: Normal Fetuses/Implantation Sites (Percent) / Number of Rats Pregnant/Number of Rats Treated / Number of Rats Pregnant/Number of Rats Treated (Percent): autopsy day 14
Protocol: as §1, §3
through 13 of pregnancy in a vehicle consisting of PEG400, propylene
glycol and 100 percent ethanol (50:40:10, v:v:v). Serum for progesterone
determination was drawn on day 11 of pregnancy, 24 hours after the initia
injection of compound. The animals were autopsied on day 14 of pregnancy.

[4] = 2 mg/kg/day subcutaneously days 10-13 of pregnancy
[5] = 2 mg/kg/day subcutaneously in corn oil once daily days 10-13 of pregnancy, autopsy day 14
[6] = 4 mg/kg/day subcutaneously days 10-13 of pregnancy
[7] = 4 mg/kg/day subcutaneously in corn oil once daily days 10-13 of pregnancy, autopsy day 14
[8] = 8 mg/kg/day subcutaneously days 10-13 of pregnancy
[9] = 8 mg/kg/day subcutaneously in corn oil once daily days 10-13 of pregnancy, autopsy day 14
[10] = 16 mg/kg/day subcutaneously days 10-13 of pregnancy, 16 mg/kg/day
[11] = 16 mg/kg/day subcutaneously in corn oil once daily days 10-13 of pregnancy, autopsy day 14
[12] = 16 mg/kg/day subcutaneously in corn oil once daily days 10-13 of pregnancy, autopsy day 14, 16 mg/kg/day
[13] = 4 mg/kg intragastrically on day 10 of pregnancy
[14] = 4 mg/kg intragastrically once on day 10 of pregnancy
[15] = 8 mg/kg intragastrically on day 10 of pregnancy
[16] = 8 mg/kg intragastrically once on day 10 of pregnancy
[17] = 16 mg/kg intragastrically on day 10 of pregnancy
[18] = 16 mg/kg intragastrically once on day 10 of pregnancy
[19] = 2 mg/kg/day intragastrically days 10-13 of pregnancy
[20] = 2 mg/kg/day intragastrically once daily days 10-13 of pregnancy
[21] = 4 mg/kg/day intragastrically days 10-13 of pregnancy
[22] = 4 mg/kg/day intragastrically once daily days 10-13 of pregnancy
[23] = 8 mg/kg/day intragastrically days 10-13 of pregnancy
[24] = 8 mg/kg/day intragastrically once daily days 10-13 of pregnancy
[25] = 16 mg/kg/day intragastrically days 10-13 of pregnancy
[26] = 16 mg/kg/day intragastrically once daily days 10-13 of pregnancy

CC(=O)OC1=C(C#N)C[C@@]2(C)C(=CC[C@@H]3[C@@H]2CC[C@@]2(C)[C@H]3CC[C@]2(C)O)C1(C)C [3-(acetyloxy)-17β-hydroxy-4,4,17α-trimethylandrosta-2,5-diene-2-carbonitrile]
Serum Progesterone (Percent Control) (pregnancy in rats [1]; [4]): 91 Percent Control
Serum Progesterone ng/ml + S.E. (pregnancy in rats [1]; [4]): 52.3 + 2.8 ng/ml
Adrenal Wt. mg + SE (pregnancy in rats [1]; [5]): 81.2 + 3.2 mg
Fetal Viability: Normal Fetuses/Implantation Sites (pregnancy in rats [1]; [5]): 101/109
Fetal Viability: Normal Fetuses/Implantation Sites (Percent) (pregnancy in rats [1]; [5]): 93%
Number of Rats Pregnant/Number of Rats Treated (pregnancy in rats [1]; [5]): 9/9
Number of Rats Pregnant/Number of Rats Treated (Percent) (pregnancy in rats [1]; [5]): 100%
Serum Progesterone (Percent Control) (pregnancy in rats [1]; [6]): 32 Percent Control
Serum Progesterone ng/ml + S.E. (pregnancy in rats [1]; [6]): 14.2 + 4.9 ng/ml
Adrenal Wt. mg + SE (pregnancy in rats [1]; [7]): 72.9 + 3.8 mg
Fetal Viability: Normal Fetuses/Implantation Sites (pregnancy in rats [1]; [7]): 21/72
Fetal Viability: Normal Fetuses/Implantation Sites (Percent) (pregnancy in rats [1]; [7]): 29%
Number of Rats Pregnant/Number of Rats Treated (pregnancy in rats [1]; [7]): 2/7
Number of Rats Pregnant/Number of Rats Treated (Percent) (pregnancy in rats [1]; [7]): 29%
Serum Progesterone (Percent Control) (pregnancy in rats [1]; [8]): 29 Percent Control
Serum Progesterone ng/ml + S.E. (pregnancy in rats [1]; [8]): 12.7 + 1.4 ng/ml
Adrenal Wt. mg + SE (pregnancy in rats [1]; [9]): 83.9 + 2.0 mg
Fetal Viability: Normal Fetuses/Implantation Sites (pregnancy in rats [1]; [9]): 0/112
Fetal Viability: Normal Fetuses/Implantation Sites (Percent) (pregnancy in rats [1]; [9]): 0%
Number of Rats Pregnant/Number of Rats Treated (pregnancy in rats [1]; [9]): 0/9
Number of Rats Pregnant/Number of Rats Treated (Percent) (pregnancy in rats [1]; [9]): 0%
Serum Progesterone (Percent Control) (pregnancy in rats [1]; [10]): 26 Percent Control and 36 Percent Control
Serum Progesterone ng/ml + S.E. (pregnancy in rats [1]; [10]): 13.1 + 1.4 ng/ml and 15.7 + 2.8 ng/ml
Fetal Viability: Normal Fetuses/Implantation Sites (Percent) (pregnancy in rats [1]; [11]): 0%
Number of Rats Pregnant/Number of Rats Treated (pregnancy in rats [1]; [11]): 0/8
Number of Rats Pregnant/Number of Rats Treated (Percent) (pregnancy in rats [1]; [11]): 0%
Adrenal Wt. mg + SE (pregnancy in rats [1]; [12]): 93.8 + 4.9 mg and 98.3 + 2.8 mg
Fetal Viability: Normal Fetuses/Implantation Sites (pregnancy in rats [1]; [12]): 0/98 and 0/84
Serum Progesterone (Percent Control) (pregnancy in rats [2]; [13]): 33 Percent Control
Serum Progesterone ng/ml + S.E. (pregnancy in rats [2]; [13]): 19.0 + 7.4 ng/ml
Adrenal Wt. mg + SE (pregnancy in rats [2]; [14]): 60.0 + 4.2 mg
Fetal Viability: Normal Fetuses/Implantation Sites (pregnancy in rats [2]; [14]): 6/82
Fetal Viability: Normal Fetuses/Implantation Sites (Percent) (pregnancy in rats [2]; [14]): 7%
Number of Rats Pregnant/Number of Rats Treated (pregnancy in rats [2]; [14]): 1/8
Number of Rats Pregnant/Number of Rats Treated (Percent) (pregnancy in rats [2]; [14]): 13%
Serum Progesterone (Percent Control) (pregnancy in rats [2]; [15]): 18 Percent Control
Serum Progesterone ng/ml + S.E. (pregnancy in rats [2]; [15]): 10.4 + 2.5 ng/ml
Adrenal Wt. mg + SE (pregnancy in rats [2]; [16]): 62.0 + 2.5 mg
Fetal Viability: Normal Fetuses/Implantation Sites (pregnancy in rats [2]; [16]): 0/81
Fetal Viability: Normal Fetuses/Implantation Sites (Percent) (pregnancy in rats [2]; [16]): 0%
Number of Rats Pregnant/Number of Rats Treated (pregnancy in rats [2]; [16]): 0/7
Number of Rats Pregnant/Number of Rats Treated (Percent) (pregnancy in rats [2]; [16]): 0%
Serum Progesterone (Percent Control) (pregnancy in rats [2]; [17]): 24 Percent Control
Serum Progesterone ng/ml + S.E. (pregnancy in rats [2]; [17]): 13.8 + 1.7 ng/ml
Adrenal Wt. mg + SE (pregnancy in rats [2]; [18]): 56.8 + 2.0 mg
Fetal Viability: Normal Fetuses/Implantation Sites (pregnancy in rats [2]; [18]): 0/60
Fetal Viability: Normal Fetuses/Implantation Sites (Percent) (pregnancy in rats [2]; [18]): 0%
Number of Rats Pregnant/Number of Rats Treated (pregnancy in rats [2]; [18]): 0/6
Number of Rats Pregnant/Number of Rats Treated (Percent) (pregnancy in rats [2]; [18]): 0%
Serum Progesterone (Percent Control) (pregnancy in rats [3]; [19]): 109 Percent Control
Serum Progesterone ng/ml + S.E. (pregnancy in rats [3]; [19]): 49.6 + 6.2 ng/ml
Adrenal Wt. mg + SE (pregnancy in rats [3]; [20]): 68.9 + 2.2 mg
Fetal Viability: Normal Fetuses/Implantation Sites (pregnancy in rats [3]; [20]): 60/89
Fetal Viability: Normal Fetuses/Implantation Sites (Percent) (pregnancy in rats [3]; [20]): 67%
Number of Rats Pregnant/Number of Rats Treated (pregnancy in rats [3]; [20]): 7/9
Number of Rats Pregnant/Number of Rats Treated (Percent) (pregnancy in rats [3]; [20]): 78%
Serum Progesterone (Percent Control) (pregnancy in rats [3]; [21]): 29 Percent Control
Serum Progesterone ng/ml + S.E. (pregnancy in rats [3]; [21]): 13.4 + 3.9 ng/ml
Adrenal Wt. mg + SE (pregnancy in rats [3]; [22]): 68.6 + 2.3 mg
Fetal Viability: Normal Fetuses/Implantation Sites (pregnancy in rats [3]; [22]): 0/112
Fetal Viability: Normal Fetuses/Implantation Sites (Percent) (pregnancy in rats [3]; [22]): 0%
Number of Rats Pregnant/Number of Rats Treated (pregnancy in rats [3]; [22]): 0/10
Number of Rats Pregnant/Number of Rats Treated (Percent) (pregnancy in rats [3]; [22]): 0%
Serum Progesterone (Percent Control) (pregnancy in rats [3]; [23]): 40 Percent Control
Serum Progesterone ng/ml + S.E. (pregnancy in rats [3]; [23]): 18.1 + 2.5 ng/ml
Adrenal Wt. mg + SE (pregnancy in rats [3]; [24]): 70.3 + 3.1 mg
Fetal Viability: Normal Fetuses/Implantation Sites (pregnancy in rats [3]; [24]): 0/95
Fetal Viability: Normal Fetuses/Implantation Sites (Percent) (pregnancy in rats [3]; [24]): 0%
Number of Rats Pregnant/Number of Rats Treated (pregnancy in rats [3]; [24]): 0/10
Number of Rats Pregnant/Number of Rats Treated (Percent) (pregnancy in rats [3]; [24]): 0%
Serum Progesterone (Percent Control) (pregnancy in rats [3]; [25]): 29 Percent Control
Serum Progesterone ng/ml + S.E. (pregnancy in rats [3]; [25]): 13.4 + 2.0 ng/ml
Adrenal Wt. mg + SE (pregnancy in rats [3]; [26]): 72.1 + 2.1 mg
Fetal Viability: Normal Fetuses/Implantation Sites (pregnancy in rats [3]; [26]): 0/111
Fetal Viability: Normal Fetuses/Implantation Sites (Percent) (pregnancy in rats [3]; [26]): 0%
Number of Rats Pregnant/Number of Rats Treated (pregnancy in rats [3]; [26]): 0/10
Number of Rats Pregnant/Number of Rats Treated (Percent) (pregnancy in rats [3]; [26]): 0%
